Results as given in ChEMBL document CHEMBL3243951, “Relationship between structure and antineoplastic activity of arylsulfonylhydrazones of 2-formylprydine N-oxide” (J Med Chem, 1978).

Assays:
[1] = tested on: Mus musculus; test: Toxicity in CD-1 mouse allografted with mouse sarcoma 180 cells assessed as change in body weight at 60 mg/kg, qd administered for 6 days measured during compound treatment (reference value: 30.2%); format: organism-based; parameters: dose 60 mg/kg; conditions: in vivo, 144 h
[2] = tested on: Sarcoma-180; test: Antineoplastic activity against mouse sarcoma 180 cells allografted in CD-1 mouse assessed as 50 day survivors at 60 mg/kg, qd administered for 6 days relative to control; format: functional
[3] = tested on: L1210; test: Antineoplastic activity against mouse L1210 cells allografted in BDF1 mouse assessed as survival time at 60 mg/kg, qd administered for 6 days (reference value: 8.4 days); format: functional
[4] = tested on: Sarcoma-180; test: Antineoplastic activity against mouse sarcoma 180 cells allografted in CD-1 mouse assessed as increase in survival rate at 60 mg/kg, qd administered for 6 days relative to control; format: functional
[5] = tested on: Mus musculus; test: Toxicity in BDF1 mouse allografted with mouse L1210 cells assessed as change in body weight at 60 mg/kg, qd administered for 6 days measured during compound treatment (reference value: 14.8%); format: organism-based; parameters: dose 60 mg/kg; conditions: in vivo, 144 h
[6] = tested on: Sarcoma-180; test: Antineoplastic activity against mouse sarcoma 180 cells allografted in CD-1 mouse assessed as increase in survival rate at 40 mg/kg, qd administered for 6 days relative to control; format: functional
[7] = tested on: Sarcoma-180; test: Antineoplastic activity against mouse sarcoma 180 cells allografted in CD-1 mouse assessed as 50 day survivors at 40 mg/kg, qd administered for 6 days relative to control; format: functional
[8] = tested on: Mus musculus; test: Toxicity in CD-1 mouse allografted with mouse sarcoma 180 cells assessed as change in body weight at 40 mg/kg, qd administered for 6 days measured during compound treatment (reference value: 30.2%); format: organism-based; parameters: dose 40 mg/kg; conditions: in vivo, 144 h
[9] = tested on: Mus musculus; test: Toxicity in CD-1 mouse allografted with mouse sarcoma 180 cells assessed as change in body weight at 80 mg/kg, qd administered for 6 days measured during compound treatment (reference value: 30.2%); format: organism-based; parameters: dose 80 mg/kg; conditions: in vivo, 144 h
[10] = tested on: Sarcoma-180; test: Antineoplastic activity against mouse sarcoma 180 cells allografted in CD-1 mouse assessed as increase in survival rate at 80 mg/kg, qd administered for 6 days relative to control; format: functional
[11] = tested on: Sarcoma-180; test: Antineoplastic activity against mouse sarcoma 180 cells allografted in CD-1 mouse assessed as 50 day survivors at 80 mg/kg, qd administered for 6 days relative to control; format: functional
[12] = tested on: L1210; test: Antineoplastic activity against mouse L1210 cells allografted in BDF1 mouse assessed as survival time at 80 mg/kg, qd administered for 6 days (reference value: 8.4 days); format: functional
[13] = tested on: Mus musculus; test: Toxicity in BDF1 mouse allografted with mouse L1210 cells assessed as change in body weight at 80 mg/kg, qd administered for 6 days measured during compound treatment (reference value: 14.8%); format: organism-based; parameters: dose 80 mg/kg; conditions: in vivo, 144 h
[14] = tested on: Mus musculus; test: Toxicity in CD-1 mouse allografted with mouse sarcoma 180 cells assessed as change in body weight at 20 mg/kg, qd administered for 6 days measured during compound treatment (reference value: 30.2%); format: organism-based; parameters: dose 20 mg/kg; conditions: in vivo, 144 h
[15] = tested on: Sarcoma-180; test: Antineoplastic activity against mouse sarcoma 180 cells allografted in CD-1 mouse assessed as increase in survival rate at 20 mg/kg, qd administered for 6 days relative to control; format: functional
[16] = tested on: Sarcoma-180; test: Antineoplastic activity against mouse sarcoma 180 cells allografted in CD-1 mouse assessed as 50 day survivors at 20 mg/kg, qd administered for 6 days relative to control; format: functional
[17] = tested on: L1210; test: Antineoplastic activity against mouse L1210 cells allografted in BDF1 mouse assessed as survival time at 100 mg/kg, qd administered for 6 days (reference value: 8.4 days); format: functional
[18] = tested on: Mus musculus; test: Toxicity in BDF1 mouse allografted with mouse L1210 cells assessed as change in body weight at 100 mg/kg, qd administered for 6 days measured during compound treatment (reference value: 14.8%); format: organism-based; parameters: dose 100 mg/kg; conditions: in vivo, 144 h

SMILES: O=S(=O)(N/N=C/c1cccc[n+]1[O-])c1ccc(F)cc1
- Activity [1]: -5.7%
- survival at 60 mg/kg [2]: 20%
- Survival [3]: 11.8 days
- T/C [4]: 337%
- Activity [5]: 1.6%

SMILES: O=S(=O)(N/N=C/c1cccc[n+]1[O-])c1ccc2c(c1)Cc1ccccc1-2
- T/C [6]: 276%
- survival at 40 mg/kg [7]: 0%
- Activity [8]: -4.7%

SMILES: O=[N+]([O-])c1ccc(S(=O)(=O)N/N=C/c2cccc[n+]2[O-])cc1
- Activity [9]: -7.1%
- T/C [10]: 345%
- survival at 80 mg/kg [11]: 10%

SMILES: O=[N+]([O-])c1cc[n+]([O-])c(/C=N/NS(=O)(=O)c2ccccc2)c1
- Activity [1]: -5.4%
- survival at 60 mg/kg [2]: 0%
- T/C [4]: 293%

SMILES: O=C(NNS(=O)(=O)c1ccccc1)c1cccc[n+]1[O-]
- T/C [6]: 107%
- survival at 40 mg/kg [7]: 0%
- Activity [8]: 20.7%

SMILES: O=S(=O)(N/N=C/c1cccc[n+]1[O-])c1ccc2ccccc2c1
- Activity [1]: -1.2%
- survival at 60 mg/kg [2]: 0%
- T/C [4]: 308%

SMILES: Cc1ccc(S(=O)(=O)N/N=C/c2cccc[n+]2[O-])cc1
- Activity [1]: -8%
- survival at 60 mg/kg [2]: 0%
- Survival [12]: 14.3 days
- Activity [13]: -7.4%
- T/C [4]: 307%

SMILES: O=S(=O)(N/N=C/c1cc(Cl)cc[n+]1[O-])c1ccccc1
- Activity [14]: 10.8%
- T/C [15]: 156%
- survival at 20 mg/kg [16]: 0%

SMILES: C/C(=N\NS(=O)(=O)c1ccccc1)c1cccc[n+]1[O-]
- Activity [1]: 23.5%
- survival at 60 mg/kg [2]: 0%
- T/C [4]: 130%

SMILES: O=S(=O)(N/N=C/c1cccc[n+]1[O-])c1cccc2ccccc12
- Activity [1]: -3.4%
- survival at 60 mg/kg [2]: 0%
- T/C [4]: 261%

SMILES: O=S(=O)(N/N=C/c1cc(N2CCOCC2)cc[n+]1[O-])c1ccccc1
- Activity [14]: 1.4%
- T/C [15]: 242%
- survival at 20 mg/kg [16]: 0%

SMILES: Nc1ccc(S(=O)(=O)N/N=C/c2cccc[n+]2[O-])cc1
- Activity [1]: 2.4%
- survival at 60 mg/kg [2]: 0%
- T/C [4]: 276%

SMILES: O=S(=O)(N/N=C/c1cccc[n+]1[O-])c1cccnc1
- Activity [1]: 0%
- survival at 60 mg/kg [2]: 0%
- T/C [4]: 276%

SMILES: O=S(=O)(N/N=C/c1cccc[n+]1[O-])c1ccccc1
- T/C [6]: 339%
- survival at 40 mg/kg [7]: 20%
- Survival [12]: 10.6 days
- Activity [13]: -8%
- Activity [8]: -5.2%

SMILES: Cc1ccccc1S(=O)(=O)N/N=C/c1cccc[n+]1[O-]
- Activity [1]: -1.9%
- survival at 60 mg/kg [2]: 0%
- T/C [4]: 285%
- Survival [17]: 19.9 days
- Activity [18]: -11.1%

SMILES: O=S(=O)(N/N=C/c1cccc[n+]1[O-])c1ccc(Br)cc1
- T/C [6]: 240%
- survival at 40 mg/kg [7]: 0%
- Activity [8]: -3.5%

SMILES: COc1ccc(S(=O)(=O)N/N=C/c2cccc[n+]2[O-])cc1
- Survival [12]: 19.7 days
- Activity [13]: -4.9%
- Activity [9]: -11.6%
- T/C [10]: 356%
- survival at 80 mg/kg [11]: 40%

SMILES: Nc1cccc(S(=O)(=O)N/N=C/c2cccc[n+]2[O-])c1
- Activity [9]: -10.3%
- T/C [10]: 364%
- survival at 80 mg/kg [11]: 0%

SMILES: O=[N+]([O-])c1cccc(S(=O)(=O)N/N=C/c2cccc[n+]2[O-])c1
- Activity [1]: -7.5%
- survival at 60 mg/kg [2]: 60%
- Survival [12]: 12.4 days
- Activity [13]: -5.4%
- T/C [4]: 390%

SMILES: O=S(=O)(N/N=C/c1cccc[n+]1[O-])c1ccc(Cl)cc1
- T/C [6]: 260%
- survival at 40 mg/kg [7]: 0%
- Activity [8]: -0.6%
